“Also recorded” adds a separate entry of the source.

The IC50 is the midpoint of a concentration-inhibition curve. As usually defined, the half-life is the time in which the quantity being followed falls by half. Lower therefore signals fast loss.

One data set has as its target human Notch 3 (Homo sapiens, UniProt Q9UM47). Kind of data set: Notch-CBF1 Transactivation Assay (Notch 3). The data set is classed as cell-based. The conditions noted are these: HeLa cells co-transfected with truncated Notch 3 and CBF1 luciferase reporter; 18 hours incubation. From the text:
Notch-CBF1 Transactivation Assay
The Notch-CBF1 (C-promoter binding factor I) cell based transactivation assay is based on the ability of the released Notch intracellular domain fragments (NICDs) to function as transcription factors in conjunction with CBF1 and other nuclear factors. Luciferase assays were used to measure the antagonism of Notch-CBF1 transcriptional activity. HeLa cervical cancer cells are transiently co-transfected with pCDNA3.1/Hygro plasmids containing truncated Notch 1, Notch 2, Notch 3, or Notch 4 receptors and a PGL3 luciferase reporter vector containing 4 copies of CBF1 binding site. The cells were then tested for Notch-CBF1 activity in the absence or presence of test compounds. HeLa cells, maintained in DMEM (high glucose with HEPES), 1× glutamine/penicillin/streptomycin and 10% Fetal Bovine serum, were transiently transfected in a T175 Flask (4.5×10^6 cells/flask) using the Monster Transfection Kit (Minis #MIR2906) according to manufacturers specifications. Table 9 denotes respective DNA quantity for the transfections.
Assay media (5 μL) containing test compounds in final concentrations ranging from 5 μM to 8.4×10^−5 μM (3 fold serial dilutions) were added to the cells and the cell plates were then incubated for 18 hours at 37° C. and 5% CO2. Control wells contained DMSO vehicle (total counts) or 0.5 μM of an in-house small molecule inhibitor (background counts). Duplicates were used for each sample. Luciferase activity was measured after a 20-minute incubation with 50 μl STEADY-GLO® luciferase reagents according to manufacturer's specifications (Promega, Cat. #E2550) and analyzed by Envision plate reader (PerkinElmer, Boston, Mass.).
The antagonist effect of compounds was expressed as 100×[1−(average sample-average background)/(average total−average background)] where sample is the luciferase activity in the presence of test compound, background is equal to the luciferase activity in the presence of the small molecule inhibitor control and the total is signal induced in DMSO wells.
On the technique in general: A reporter such as luciferase makes a cellular process visible.

The subject of data set [1] is TALL1 Human T-cell acute lymphoblastic leukemia. Kind of data set: Human tumor xenograft model in mice, TALL1. The data set is classed as in vivo. The conditions noted are these: oral administration, 10-20 mg/kg, QDx10; LCK = Log Cell Kill. How it is done:
(§1) Human Tumor Xenograft Models in Mice
(§2) Mice were fed food and water ad libitum.
(§3) Tumor growth inhibition is calculated as follows: […]
(§4) When death occurred, the day of death was recorded.

Data set [2] relates to MDA-MB-157 Human Breast Carcinoma. Description: Human tumor xenograft model in mice, MDA-MB-157. The conditions noted are these: oral administration, 10-20 mg/kg, QDx15, 10 day-on-2 day-off-5 day on. The data set is classed as in vivo. How it is done: as §1, §2, §3, §4
A general note: In xenograft studies the graft and the host belong to different species.

For data set [3], the system named is MDA-MB-468 Human Breast Carcinoma. The conditions noted are these: oral administration, 10-20 mg/kg, QDx15, 10 day-on-2 day-off-5 day on. On the procedure:
Treatment of each animal was based on individual body weight. Treated animals were checked daily for treatment related toxicity/mortality. Each group of animals was weighed before the initiation of treatment (Wt1) and then again following the last treatment dose (Wt2). The difference in body weight (Wt2−Wt1) provides a measure of treatment-related toxicity.
Statistical evaluations of data were performed using Gehan's generalized Wilcoxon test. Statistical significance was declared at P<0.05.

A further data set relates to human tumor xenografts. Kind of data set: Human tumor xenograft models in mice (general statement). It counts as in vivo. The conditions noted are these: orally administered (PO). On the procedure: Mice were fed food and water ad libitum. […] [table] […] When death occurred, the day of death was recorded.
A further data set in a line: in vitro. The conditions noted are these: human, microsomes, pH 7.4.

Chain of human Notch 3 (Q9UM47 40-2321 limits assumed): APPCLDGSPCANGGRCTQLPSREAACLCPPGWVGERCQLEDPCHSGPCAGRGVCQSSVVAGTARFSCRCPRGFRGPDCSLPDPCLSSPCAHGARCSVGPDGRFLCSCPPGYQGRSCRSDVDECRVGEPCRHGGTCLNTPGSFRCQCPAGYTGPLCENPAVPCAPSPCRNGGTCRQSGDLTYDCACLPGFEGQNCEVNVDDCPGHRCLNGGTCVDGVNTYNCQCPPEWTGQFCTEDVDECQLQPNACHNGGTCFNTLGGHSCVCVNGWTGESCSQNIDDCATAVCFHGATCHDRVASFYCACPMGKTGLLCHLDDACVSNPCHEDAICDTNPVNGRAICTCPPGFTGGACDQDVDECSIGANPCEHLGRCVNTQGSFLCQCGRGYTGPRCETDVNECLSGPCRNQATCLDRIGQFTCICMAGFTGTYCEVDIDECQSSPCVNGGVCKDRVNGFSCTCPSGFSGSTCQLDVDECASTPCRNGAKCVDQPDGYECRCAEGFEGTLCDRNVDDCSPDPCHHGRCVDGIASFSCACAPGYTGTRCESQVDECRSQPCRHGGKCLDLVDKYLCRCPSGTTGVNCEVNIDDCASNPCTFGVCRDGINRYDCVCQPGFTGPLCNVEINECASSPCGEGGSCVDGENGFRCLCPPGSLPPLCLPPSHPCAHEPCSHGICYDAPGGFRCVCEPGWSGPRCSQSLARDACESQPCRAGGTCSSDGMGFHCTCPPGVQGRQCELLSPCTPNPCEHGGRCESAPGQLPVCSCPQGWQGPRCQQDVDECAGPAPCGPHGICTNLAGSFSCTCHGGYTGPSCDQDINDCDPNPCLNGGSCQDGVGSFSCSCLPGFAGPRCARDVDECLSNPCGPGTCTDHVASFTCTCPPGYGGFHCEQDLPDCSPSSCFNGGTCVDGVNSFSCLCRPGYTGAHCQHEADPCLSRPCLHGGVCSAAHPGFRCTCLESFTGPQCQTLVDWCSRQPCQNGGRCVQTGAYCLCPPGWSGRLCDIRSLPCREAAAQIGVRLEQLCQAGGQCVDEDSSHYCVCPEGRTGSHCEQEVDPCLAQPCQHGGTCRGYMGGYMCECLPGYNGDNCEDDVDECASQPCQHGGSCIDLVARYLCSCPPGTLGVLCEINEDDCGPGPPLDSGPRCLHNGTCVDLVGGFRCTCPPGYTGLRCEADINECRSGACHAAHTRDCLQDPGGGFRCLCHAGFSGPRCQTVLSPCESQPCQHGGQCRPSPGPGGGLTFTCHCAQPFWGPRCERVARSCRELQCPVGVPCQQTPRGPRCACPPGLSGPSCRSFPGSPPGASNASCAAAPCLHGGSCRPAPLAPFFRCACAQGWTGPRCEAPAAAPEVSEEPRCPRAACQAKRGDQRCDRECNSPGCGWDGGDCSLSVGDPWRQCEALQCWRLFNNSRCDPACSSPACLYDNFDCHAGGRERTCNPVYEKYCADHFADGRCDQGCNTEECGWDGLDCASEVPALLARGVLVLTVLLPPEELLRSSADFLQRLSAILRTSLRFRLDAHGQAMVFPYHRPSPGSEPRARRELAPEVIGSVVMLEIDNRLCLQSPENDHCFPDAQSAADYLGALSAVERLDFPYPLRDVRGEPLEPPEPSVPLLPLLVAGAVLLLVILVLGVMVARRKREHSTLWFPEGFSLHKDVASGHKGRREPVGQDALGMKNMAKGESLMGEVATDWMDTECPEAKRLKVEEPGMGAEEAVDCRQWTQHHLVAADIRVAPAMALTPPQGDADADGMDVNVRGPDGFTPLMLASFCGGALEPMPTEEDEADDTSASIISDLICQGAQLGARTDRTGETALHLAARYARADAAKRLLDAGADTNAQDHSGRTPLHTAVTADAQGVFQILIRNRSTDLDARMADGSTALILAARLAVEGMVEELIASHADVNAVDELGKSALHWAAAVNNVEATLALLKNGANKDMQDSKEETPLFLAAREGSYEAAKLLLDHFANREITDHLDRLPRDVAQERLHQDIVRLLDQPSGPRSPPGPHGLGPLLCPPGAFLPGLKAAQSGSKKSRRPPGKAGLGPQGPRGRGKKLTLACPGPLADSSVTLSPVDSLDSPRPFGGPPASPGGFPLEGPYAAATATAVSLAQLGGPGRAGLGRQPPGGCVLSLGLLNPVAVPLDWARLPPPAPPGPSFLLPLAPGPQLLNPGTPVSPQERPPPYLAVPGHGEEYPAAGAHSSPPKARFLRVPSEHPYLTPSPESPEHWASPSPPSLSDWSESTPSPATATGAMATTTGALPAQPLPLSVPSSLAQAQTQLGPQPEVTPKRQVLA

Consider `Cc1cccc2c1NC(=O)[C@@H](NC(=O)[C@H](CCC(F)(F)F)[C@H](CCC(F)(F)F)C(N)=O)N=C2c1cccc(F)c1` [Example 1, (2R,3S)—N-((3S)-5-(3-Fluorophenyl)-9-methyl-2-oxo-2,3-dihydro-1H-1,4-benzodiazepin-3-yl)-2,3-bis(3,3,3-trifluoropropyl)succinamide], for which inhibition against human Notch 3 was half-maximal at 8.5 nM (IC50). Further, the “Antitumor Activity TALL1 (LCK)” value in data set [1] is recorded as greater than 4.3. In addition, in data set [2], the “Antitumor Activity MDA-MB-157 (% TGI)” value is on record as 91%. Moreover, the “Antitumor Activity MDA-MB-468 (% TGI)” value in data set [3] amounted to 98%. Moreover, the “antitumor activity in human tumor xenografts implanted in mice” value with human tumor xenografts is “exhibited antitumor activity; also recorded: showed antitumor activity”. The half-life at 0.5 µM in “in vitro” stood at 1.72 h.

The record behind these values is patent publication US9273014B2, “Bis(fluoroalkyl)-1,4-benzodiazepinone compounds and prodrugs thereof” (Bristol-Myers Squibb Company, priority 2012, dated 2016).
